In ChEMBL document CHEMBL1201862, “PubChem BioAssay data set” (2004):
The source made the active and inactive calls.

How the values were obtained:
[1] = biological target: Dual specificity protein kinase CLK1 (Homo sapiens, UniProt P49759); test: CLK1 kinase inhibitors, off-target check, dose response, selectivity assay for Dyrk1A inhibitor project, biochemical, cherry-picked samples (AID 588811)
[2] = Luminescence Cell-Based Dose Response HTS to Identify Inhibitors of 5'UTR Stem-Loop Driven Prion Protein mRNA Translation in H4 Neuroglioblastoma Cells. [Related pubchem assays: 1827 (Project Summary), 1813 (Primary HTS)]; assay type: functional
[3] = inhibitors of firefly luciferase expression or activity, dose response, H4 neuroglioma cells, luminescence (AID 1990); assay type: functional, cell-based
BJ [4] = test: cytotoxicity toward BJ-TERT fibroblasts, dose response, cell-based, RAS-independent, luminescence (AID 1933); assay type: functional; details: Homo sapiens
Melanocortin receptor 4 = Melanocortin receptor 4 (Homo sapiens, UniProt P32245); test: MC4R antagonist potency on cAMP, dose response, cell-based, TR-FRET, biased antagonists (AID 602298); assay type: functional;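 further: antagonist potency against agonist-stimulated cAMP production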
Chain of Melanocortin receptor 4 (P32245 whole entry): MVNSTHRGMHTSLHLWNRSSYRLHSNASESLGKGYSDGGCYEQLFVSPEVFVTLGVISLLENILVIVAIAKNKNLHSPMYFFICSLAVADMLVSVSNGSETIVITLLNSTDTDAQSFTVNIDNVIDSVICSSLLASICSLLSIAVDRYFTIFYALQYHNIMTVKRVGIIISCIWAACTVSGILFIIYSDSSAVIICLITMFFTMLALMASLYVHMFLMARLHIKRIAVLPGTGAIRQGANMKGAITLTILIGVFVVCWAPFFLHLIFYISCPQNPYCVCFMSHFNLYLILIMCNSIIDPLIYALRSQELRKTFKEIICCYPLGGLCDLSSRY

[5] = biological target: T1, Microphthalmia-associated transcription factor (Homo sapiens, UniProt O75030); test: TRPM1 promoter luciferase signal decrease, dose response, MITF inhibitor project, cell-based, SK-MEL-5, cherry-picked, set 3 (AID 493073); assay type: functional
T1 sequence (O75030 whole entry): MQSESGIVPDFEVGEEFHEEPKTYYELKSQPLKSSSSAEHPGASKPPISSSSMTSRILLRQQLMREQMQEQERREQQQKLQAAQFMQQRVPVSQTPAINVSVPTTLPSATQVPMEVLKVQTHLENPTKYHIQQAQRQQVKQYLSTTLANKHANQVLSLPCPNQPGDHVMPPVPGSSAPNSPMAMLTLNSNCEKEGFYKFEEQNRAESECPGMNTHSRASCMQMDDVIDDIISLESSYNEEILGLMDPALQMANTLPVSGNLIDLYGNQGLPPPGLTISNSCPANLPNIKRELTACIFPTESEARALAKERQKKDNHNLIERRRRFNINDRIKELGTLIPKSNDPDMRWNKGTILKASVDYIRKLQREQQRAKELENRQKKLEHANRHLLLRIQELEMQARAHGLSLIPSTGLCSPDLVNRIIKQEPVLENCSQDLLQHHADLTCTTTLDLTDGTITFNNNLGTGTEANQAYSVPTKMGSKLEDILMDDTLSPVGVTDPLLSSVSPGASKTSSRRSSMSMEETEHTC

BJ [6] = test: cytotoxicity toward BJ-TERT-LT-ST fibroblasts, dose response, cell-based, RAS-independent, luminescence (AID 1935); assay type: functional; details: Homo sapiens;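 further: BJ fibroblasts immortalized with TERT plus LT and ST oncogenes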
[7] = inhibitors of SNCA 5'UTR-driven reporter translation, confirmation, H4 neuroglioma cells, luminescence (AID 1988); assay type: functional, cell-based
A-375 = test: A375 melanoma cell viability reduction, dose response, counter-screen for MITF modulator project, cherry-pick samples, set 2 (AID 540335); assay type: functional, cell-based; details: Homo sapiens
BJ [8] = test: cells; assay type: functional, cell-based; details: Homo sapiens
[9] = Luminescence Cell-Based Dose Retest to Confirm Inhibitors of Cancer Stem Cells. [Related pubchem assays (depositor defined):AID2717, AID2721]; assay type: functional; details: Homo sapiens
[10] = cytotoxicity toward DRD oncogenic fibroblasts, dose response, cell-based, non-viral oncogenic, luminescence (AID 1934); assay type: functional; details: Homo sapiens
[11] = nonselective inhibitors of cellular cAMP signaling, dose response, counter-screen for MC4R biased antagonist project, cell-based, TR-FRET cAMP detection (AID 602305); assay type: functional;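 further: U2OS cells stimulated with forskolin near its EC80 as the cAMP inducer; potency is for inhibition of forskolin-stimulated cAMP signaling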
HEK293 [12] = test: SAR Analysis of small molecule inhibitors of B-cell specific antigen receptor-induced NF-kB activation in a HEK-293T cell line using a luminescence assay - Set 2. [Related pubchem assays (depositor defined):AID435022, AID435025, AID489021]; assay type: functional, cell-based; details: Homo sapiens
HEK293 [13] = test: cytotoxicity in HEK293T NF-kB-Luc cells, SAR follow-up, cytotoxicity control for NF-kB activator project, cell-based, resazurin fluorescence (AID 493251); assay type: functional; details: Homo sapiens
Jurkat = test: SAR Analysis of small molecule inhibitors of […] specific antigen receptor-induced NF-kB activation in a Jurkat cell line using a luminescence assay - Set 3. [Related pubchem assays (depositor defined):AID435022, AID435025, AID465]; assay type: functional, cell-based; details: Homo sapiens
Troponin, cardiac muscle = Troponin, cardiac muscle (Homo sapiens, UniProt P19429+P45379+P63316); test: Fluorescence-based biochemical high throughput dose response assay for activators of the calcium sensitivity of cardiac Regulated Thin Filaments (RTF). [Related pubchem assays (depositor defined):AID493008, AID493018, AID504382, AID504383]; assay type: protein-complex assay
Keap1/Nrf2 = Keap1/Nrf2 (Homo sapiens, UniProt Q14145); test: Keap1-Nrf2 protein-protein interaction inhibitors, dose response, biochemical, fluorescence polarization, cherry-picked samples (AID 588683)
Chain of Keap1/Nrf2 (Q16236 whole entry): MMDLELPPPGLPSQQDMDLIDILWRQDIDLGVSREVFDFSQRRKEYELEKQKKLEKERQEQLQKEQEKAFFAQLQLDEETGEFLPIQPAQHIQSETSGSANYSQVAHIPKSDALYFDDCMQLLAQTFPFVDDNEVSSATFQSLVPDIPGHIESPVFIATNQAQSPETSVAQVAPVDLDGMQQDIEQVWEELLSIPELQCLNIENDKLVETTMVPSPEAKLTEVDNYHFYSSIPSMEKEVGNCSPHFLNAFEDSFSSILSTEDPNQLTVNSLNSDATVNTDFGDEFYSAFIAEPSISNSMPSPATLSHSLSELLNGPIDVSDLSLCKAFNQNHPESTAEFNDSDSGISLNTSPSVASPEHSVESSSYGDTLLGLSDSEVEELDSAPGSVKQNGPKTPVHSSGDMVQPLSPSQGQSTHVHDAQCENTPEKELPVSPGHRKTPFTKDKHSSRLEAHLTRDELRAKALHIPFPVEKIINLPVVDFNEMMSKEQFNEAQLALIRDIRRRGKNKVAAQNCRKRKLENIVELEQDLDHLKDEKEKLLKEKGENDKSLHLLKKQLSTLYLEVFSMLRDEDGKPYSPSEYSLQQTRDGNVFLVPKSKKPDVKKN
Chain of Keap1/Nrf2 (Q14145 whole entry): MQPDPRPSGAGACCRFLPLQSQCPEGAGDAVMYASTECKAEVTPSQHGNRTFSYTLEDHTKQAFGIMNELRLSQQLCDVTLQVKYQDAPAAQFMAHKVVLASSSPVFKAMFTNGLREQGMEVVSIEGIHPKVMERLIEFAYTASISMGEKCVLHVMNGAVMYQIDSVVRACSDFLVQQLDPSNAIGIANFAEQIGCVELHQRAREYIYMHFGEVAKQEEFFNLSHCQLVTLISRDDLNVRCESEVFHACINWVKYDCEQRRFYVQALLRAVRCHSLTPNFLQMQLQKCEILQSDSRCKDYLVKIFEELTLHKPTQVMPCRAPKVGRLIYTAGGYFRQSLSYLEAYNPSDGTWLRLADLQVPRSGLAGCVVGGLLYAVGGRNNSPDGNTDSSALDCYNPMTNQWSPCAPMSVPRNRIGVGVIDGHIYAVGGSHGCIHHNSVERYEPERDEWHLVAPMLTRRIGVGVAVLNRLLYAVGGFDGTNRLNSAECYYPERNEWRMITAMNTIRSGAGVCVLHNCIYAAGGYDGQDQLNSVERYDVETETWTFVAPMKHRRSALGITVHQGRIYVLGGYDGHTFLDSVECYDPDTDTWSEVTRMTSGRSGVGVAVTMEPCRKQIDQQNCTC

[14] = biological target: T2, Endoribonuclease toxin MazF (Escherichia coli K-12, UniProt P0AE70); test: MazF toxin RNase activators, dose response, biochemical, fluorescence, single-stranded RNA substrate, uHTS hits (AID 588481); assay type: functional
T2 sequence (P0AE70 whole entry): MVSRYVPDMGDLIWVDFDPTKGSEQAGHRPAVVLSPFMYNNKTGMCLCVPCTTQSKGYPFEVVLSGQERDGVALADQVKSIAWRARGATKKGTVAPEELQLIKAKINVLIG

[15] = biological target: T2, Endoribonuclease toxin MazF; test: fluorescent RNA oligo signal without MazF, dose response, counter-screen for MazEF activator project, biochemical, fluorescence, single-stranded RNase substrate (AID 588502); assay type: functional
[16] = biological target: T3, Oxysterols receptor LXR-beta (Homo sapiens, UniProt P55055); test: LXR agonists, Gal4 luciferase reporter, dose response, counter-screen for ssDAF-12 agonist project, cell-based, luminescence, HEK293, S. stercoralis campaign (AID 720737); assay type: functional; details: read-out: IC50 (the source's name)
T3 sequence (P55055 whole entry): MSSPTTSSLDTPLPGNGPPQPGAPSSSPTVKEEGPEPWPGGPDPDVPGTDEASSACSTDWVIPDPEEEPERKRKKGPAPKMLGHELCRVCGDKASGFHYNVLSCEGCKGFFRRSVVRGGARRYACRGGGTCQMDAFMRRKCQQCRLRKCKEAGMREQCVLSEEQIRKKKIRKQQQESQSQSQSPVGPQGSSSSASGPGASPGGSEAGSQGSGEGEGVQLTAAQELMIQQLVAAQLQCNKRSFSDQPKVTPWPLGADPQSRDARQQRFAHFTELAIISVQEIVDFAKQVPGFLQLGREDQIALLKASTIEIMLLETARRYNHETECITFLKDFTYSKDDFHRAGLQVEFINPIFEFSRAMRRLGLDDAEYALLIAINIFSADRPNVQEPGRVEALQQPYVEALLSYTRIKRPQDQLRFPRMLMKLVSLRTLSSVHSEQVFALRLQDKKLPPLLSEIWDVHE

[17] = Luminescence-based cell-based high throughput dose response assay to identify activators of the DAF-12 from the parasite S. stercoralis (ssDAF-12).; assay type: functional
ORF 73 = ORF 73 (Human herpesvirus 8, UniProt O40947); test: inhibitors of C-LANA binding to LBS DNA, dose response, biochemical, fluorescence polarization, cherry-picked samples (AID 504725); design: species or system Human gammaherpesvirus 8;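 further: fluorescence polarization of a labeled DNA duplex reporting LANA DNA binding; potency is for inhibitors that block LANA binding to the DNA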
[18] = biological target: UDP-galactopyranose mutase (Mycobacterium tuberculosis, UniProt P9WIQ1); test: Inhibitors of Mycobacterium tuberculosis UDP-galactopyranose mutase (UGM) enzyme Measured in Biochemical System Using Plate Reader - 2105-02_Inhibitor_Dose_CherryPick_Activity. [Related pubchem assays (depositor defined):AID504439]
Chain of UDP-galactopyranose mutase (P9WIQ1 whole entry): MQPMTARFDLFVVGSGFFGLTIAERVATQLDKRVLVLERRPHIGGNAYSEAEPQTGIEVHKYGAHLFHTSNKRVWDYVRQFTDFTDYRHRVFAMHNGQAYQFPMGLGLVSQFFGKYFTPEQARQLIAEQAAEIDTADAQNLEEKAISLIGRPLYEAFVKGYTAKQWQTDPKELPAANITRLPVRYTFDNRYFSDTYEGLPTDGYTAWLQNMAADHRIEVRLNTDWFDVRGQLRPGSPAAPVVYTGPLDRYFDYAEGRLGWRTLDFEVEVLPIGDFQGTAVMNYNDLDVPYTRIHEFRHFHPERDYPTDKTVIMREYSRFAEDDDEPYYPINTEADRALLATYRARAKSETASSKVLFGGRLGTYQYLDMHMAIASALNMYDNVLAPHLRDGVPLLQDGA

Phospholipase D1 = Phospholipase D1 (Homo sapiens, UniProt Q13393); test: PLD1 inhibitor potency in cells, dose response (AID 602151); assay type: functional;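 further: cellular PLD1 assay in Calu-1 cells stimulated with PMA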
Chain of Phospholipase D1 (Q13393 whole entry): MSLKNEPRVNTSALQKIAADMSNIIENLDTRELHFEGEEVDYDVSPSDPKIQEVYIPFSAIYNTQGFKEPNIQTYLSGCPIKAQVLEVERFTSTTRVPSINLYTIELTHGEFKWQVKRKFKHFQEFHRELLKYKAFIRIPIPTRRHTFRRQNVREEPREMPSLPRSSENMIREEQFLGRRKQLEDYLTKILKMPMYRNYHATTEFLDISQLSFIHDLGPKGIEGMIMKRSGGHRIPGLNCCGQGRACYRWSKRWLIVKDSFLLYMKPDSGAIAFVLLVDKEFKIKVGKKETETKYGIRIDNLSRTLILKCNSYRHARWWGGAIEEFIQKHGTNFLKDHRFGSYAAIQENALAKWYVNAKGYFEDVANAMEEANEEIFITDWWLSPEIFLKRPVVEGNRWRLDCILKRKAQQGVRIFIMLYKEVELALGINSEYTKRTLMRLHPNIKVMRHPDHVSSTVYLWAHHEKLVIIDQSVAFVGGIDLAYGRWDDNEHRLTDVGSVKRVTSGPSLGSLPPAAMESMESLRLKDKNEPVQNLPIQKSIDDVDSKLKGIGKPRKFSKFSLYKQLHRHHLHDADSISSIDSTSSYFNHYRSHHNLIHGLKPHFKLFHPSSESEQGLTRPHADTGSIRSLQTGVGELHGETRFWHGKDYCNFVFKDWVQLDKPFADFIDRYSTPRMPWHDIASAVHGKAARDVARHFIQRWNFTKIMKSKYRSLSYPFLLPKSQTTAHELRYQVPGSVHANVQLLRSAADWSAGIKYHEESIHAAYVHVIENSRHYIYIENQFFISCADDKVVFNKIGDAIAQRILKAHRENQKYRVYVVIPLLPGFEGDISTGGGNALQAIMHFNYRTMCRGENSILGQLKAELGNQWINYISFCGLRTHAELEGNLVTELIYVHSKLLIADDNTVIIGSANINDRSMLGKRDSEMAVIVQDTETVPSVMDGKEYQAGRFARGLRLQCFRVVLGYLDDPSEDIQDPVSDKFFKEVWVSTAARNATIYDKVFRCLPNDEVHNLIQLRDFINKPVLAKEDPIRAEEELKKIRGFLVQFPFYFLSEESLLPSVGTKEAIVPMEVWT

[19] = biological target: T4, Short transient receptor potential channel 4 (Mus musculus, UniProt Q9QUQ5); test: TRPC4 inhibitor concentration-response, dose response, cell-based, HEK293 TRPC4/mu-opioid, DAMGO stimulus, Fluo-4 (AID 492994); assay type: functional
T4 sequence (Q9QUQ5 whole entry): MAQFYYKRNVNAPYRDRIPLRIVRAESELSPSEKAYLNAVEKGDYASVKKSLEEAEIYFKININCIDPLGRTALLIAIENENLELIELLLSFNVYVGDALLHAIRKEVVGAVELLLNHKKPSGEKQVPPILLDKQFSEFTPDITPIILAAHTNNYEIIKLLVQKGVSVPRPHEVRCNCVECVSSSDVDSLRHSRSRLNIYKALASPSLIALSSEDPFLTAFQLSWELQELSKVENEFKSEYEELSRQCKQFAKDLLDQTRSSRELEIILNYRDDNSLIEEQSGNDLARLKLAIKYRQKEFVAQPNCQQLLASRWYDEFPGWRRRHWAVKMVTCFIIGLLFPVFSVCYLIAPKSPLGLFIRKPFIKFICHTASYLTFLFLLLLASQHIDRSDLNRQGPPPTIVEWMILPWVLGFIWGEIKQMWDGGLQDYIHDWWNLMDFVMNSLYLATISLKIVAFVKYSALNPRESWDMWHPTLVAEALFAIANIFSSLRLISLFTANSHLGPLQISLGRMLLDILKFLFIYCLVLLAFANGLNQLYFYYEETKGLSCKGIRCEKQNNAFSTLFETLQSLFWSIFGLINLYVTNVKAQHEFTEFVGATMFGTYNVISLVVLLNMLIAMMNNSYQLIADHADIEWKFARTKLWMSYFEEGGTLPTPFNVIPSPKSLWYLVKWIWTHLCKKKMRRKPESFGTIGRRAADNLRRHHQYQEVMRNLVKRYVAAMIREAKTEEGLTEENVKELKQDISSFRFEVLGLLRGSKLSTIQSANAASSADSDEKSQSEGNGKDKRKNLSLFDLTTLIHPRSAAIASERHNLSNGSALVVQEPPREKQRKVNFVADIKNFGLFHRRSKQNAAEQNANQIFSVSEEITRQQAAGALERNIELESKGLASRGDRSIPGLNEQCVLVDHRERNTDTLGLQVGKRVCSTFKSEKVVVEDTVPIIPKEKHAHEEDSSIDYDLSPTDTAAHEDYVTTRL

[20] = biological target: Short transient receptor potential channel 6 (Mus musculus, UniProt Q61143); test: TRPC6 inhibition potency of TRPC4 inhibitor analogs, dose response, selectivity assay for selective TRPC4 inhibitor project, HEK293 cells, membrane potential dye, IC50 (AID 492987); assay type: functional, cell-based
Chain of Short transient receptor potential channel 6 (Q61143 whole entry): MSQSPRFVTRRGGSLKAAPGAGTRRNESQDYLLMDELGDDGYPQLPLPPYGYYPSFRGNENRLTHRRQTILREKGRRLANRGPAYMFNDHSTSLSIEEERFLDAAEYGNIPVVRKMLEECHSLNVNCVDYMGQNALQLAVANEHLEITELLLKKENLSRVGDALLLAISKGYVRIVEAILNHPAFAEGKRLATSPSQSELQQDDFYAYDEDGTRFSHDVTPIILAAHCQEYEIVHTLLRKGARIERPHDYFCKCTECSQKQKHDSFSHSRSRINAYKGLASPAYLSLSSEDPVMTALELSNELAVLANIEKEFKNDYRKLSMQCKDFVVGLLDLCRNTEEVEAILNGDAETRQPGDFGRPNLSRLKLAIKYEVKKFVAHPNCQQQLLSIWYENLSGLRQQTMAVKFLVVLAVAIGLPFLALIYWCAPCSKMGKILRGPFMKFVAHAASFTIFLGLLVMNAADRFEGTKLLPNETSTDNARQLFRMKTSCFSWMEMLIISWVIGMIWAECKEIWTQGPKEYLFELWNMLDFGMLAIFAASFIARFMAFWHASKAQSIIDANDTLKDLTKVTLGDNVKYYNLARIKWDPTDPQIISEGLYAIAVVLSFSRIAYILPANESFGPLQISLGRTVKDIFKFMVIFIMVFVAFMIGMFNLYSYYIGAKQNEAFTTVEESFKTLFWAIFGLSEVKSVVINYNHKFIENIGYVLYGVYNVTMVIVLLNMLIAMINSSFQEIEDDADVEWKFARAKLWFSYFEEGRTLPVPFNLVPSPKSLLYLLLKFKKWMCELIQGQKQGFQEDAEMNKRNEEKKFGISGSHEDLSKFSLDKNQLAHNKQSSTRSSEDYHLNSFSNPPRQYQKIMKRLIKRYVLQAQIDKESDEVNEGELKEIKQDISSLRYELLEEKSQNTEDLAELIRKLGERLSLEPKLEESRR

[21] = biological target: T4, Short transient receptor potential channel 4; test: SAR Analysis for the identification of selective inhibits of the transient receptor potential cation channel C4 (TRPC4): Automated Electrophysiology. [Related pubchem assays (depositor defined):AID2256]; assay type: functional

Chain of Dual specificity protein kinase CLK1 (P49759 whole entry): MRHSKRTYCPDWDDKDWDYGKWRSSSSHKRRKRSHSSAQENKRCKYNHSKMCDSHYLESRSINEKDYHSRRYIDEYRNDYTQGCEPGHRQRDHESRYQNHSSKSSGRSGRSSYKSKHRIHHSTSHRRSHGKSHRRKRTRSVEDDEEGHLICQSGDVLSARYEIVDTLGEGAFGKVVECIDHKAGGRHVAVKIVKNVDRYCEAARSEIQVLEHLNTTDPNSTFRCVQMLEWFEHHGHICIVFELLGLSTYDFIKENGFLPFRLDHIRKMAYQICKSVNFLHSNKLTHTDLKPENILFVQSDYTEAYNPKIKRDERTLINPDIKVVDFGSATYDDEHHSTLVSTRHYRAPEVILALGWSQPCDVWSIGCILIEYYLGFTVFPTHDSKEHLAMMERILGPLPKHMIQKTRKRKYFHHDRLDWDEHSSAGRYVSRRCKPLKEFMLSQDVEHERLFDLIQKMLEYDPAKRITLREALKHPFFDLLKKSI

Cc1nc(CN(C)c2ncnc3ccc(-c4ccc5c(c4)OCO5)cc23)cs1
AC50 [1]: < 1.95 nM (active)

O=C(/C=C/c1ccc(Cl)cc1)c1ccc([N+](=O)[O-])o1
EC50 [2]: > 60 µM (not active) | EC50 [3]: 8.88 µM (active) | EC50 (BJ [4]): > 150 µM (not active) | IC50 (Melanocortin receptor 4): > 64.6 µM (inactive) | AC50 [5]: 5.32 µM (active) | EC50 (BJ [6]): > 150 µM (inconclusive) | EC50 [7]: > 120 µM (not active) | AC50 (A-375): 29.9 µM (active) | EC50 (BJ [8]): > 150 µM (inconclusive) | AC50 [9]: 1.21 µM (active) | EC50 [10]: 1.13 µM (inconclusive) | IC50 [11]: > 64.6 µM (inactive)

CC(C)NC(=O)CCc1nc(-c2ccc(C(C)(C)C)cc2)no1
IC50 (HEK293 [12]): 13.5 µM (active) | IC50 (HEK293 [13]): > 80 µM (inactive) | IC50 (Jurkat): 29.2 µM (inactive)

CN(N=Nc1ccc([N+](=O)[O-])cc1)c1ccccc1
EC50 (Troponin, cardiac muscle): 5.61 µM (active) | AC50 (Keap1/Nrf2): 21.8 µM (active) | EC50 [14]: > 99 µM (inactive) | EC50 [15]: 31 µM (inactive) | EC50 [16]: > 67.6 µM (inactive) | IC50 [17]: > 67.6 µM (inactive) | AC50 (ORF 73): 11.4 µM (active) | AC50 [18]: 28.7 µM (active)

O=C(NCCN1CC=C(n2c(=O)[nH]c3ccccc32)CC1)C1CC1c1ccccc1 (stereo not drawn)
IC50 (Phospholipase D1): 200 nM (active)

Cc1ccc2nc(N3CCCC3)cc(C)c2c1
IC50 [19]: 2.04 µM (active) | IC50 [20]: 2.03 µM (active) | IC50 [21]: 3.71 µM (active)
